This is an account of results in EP4741392A1, “1H-PYRAZOLO[4,3-C]PYRIDINE COMPOUND, AND COMPOSITION THEREOF AND USE THEREOF” (Shenzhen TargetRx Co., Ltd., priority 2023, dated 2025).

Holding throughout (format): cell-based
In one assay the test system is NIH/3T3 BTK WT cells. Put plainly: Phosphor-BTK(Y223) assay, adherent cells. The settings on record: Mus musculus, NIH3T3, phosphorylated BTK Y223, NIH/3T3 BTK WT cells; read-out: NIH/3T3 BTK-WT pBTK. The procedure:
(§1) The purpose of this assay was to simply, quickly and directly detect the level of endogenous BTK phosphorylation in cells.
(§2) The steps for handling adherent cells were as follows: • 1) NIH/3T3 BTK WT cells (7.5 k/well) and NIH/3T3 BTK C481S cells (10 k/well) were plated in a 96-well plate, respectively, and cultured at 37 °C and 5% CO2 overnight. • 2) A 3-fold final concentration gradient dilution of a compound was prepared, and 50 µL of it was taken and added to 100 µL of cell culture. 0.5% DMSO was used as a positive control for cell growth. • 3) The plate was incubated at 37 °C and 5% CO2 for 0.5 h. • 4) Na3VO4 at a final concentration of 1mM was added, and the plate was incubated at 37 °C and 5% CO2 for 2 hours. • 5) During the incubation, the following reagents were prepared: • 1x added lysis buffer: 3 vol ddH2O + 1 vol 4x lysis buffer + 100x blocking reagent. • p-BTK (Y223) cryptate-antibody and p-BTK (Y223) d2-antibody working solutions: 1 volume of each cryopreserved antibody (stored at - 20 °C) was added to 19 times the volume of assay buffer (stored at 4 °C). • 6) After the incubation was completed, the medium was removed and 50 µL of 1x added lysis buffer was added. The plate was centrifuged at 500 rpm at room temperature for 30 min. • 7) The lysate was mixed well and 16 µL of it was transferred to a 384-well plate. 1 × added lysis buffer was used as a blank control. • 8) 4 µL of pre-mixed working solutions of the two antibodies (cryptate Ab:d2 Ab = 1:1) was added, and the plate was sealed. • 9) The plate was incubated at room temperature overnight. 10) The plate was read at 665nm and 620nm using Biotek cytation3.0 microplate reader, and the ratio of 665/620nm of each well was calculated.
(§3) The IC50 (half-maximal phosphorylation inhibitory concentration) of the phosphorylated BTK Y223 of the compound was obtained using the following nonlinear fitting formula: Y = Bottom + (Top−Bottom)/(1+10^(∧)((LogIC50−X)*HillSlope)) [formula] • X: Log value of the compound concentration • Y: Inhibition rate (% inhibition) • Top: Maximum response • Bottom: Baseline response • HillSlope: Slope of the curve
(§4) The formula for calculating cell phosphorylation inhibition rate (inhibition rate %) was: Inhibition rate% = 1−(eachconcentrationwell-blankwell)/(positivecontrolwell−blankwell) [formula]

The subject of the next assay is NIH/3T3 BTK C481S cells. Put plainly: Phosphor-BTK(Y223) assay, adherent cells. The settings on record: Mus musculus, NIH3T3, phosphorylated BTK Y223, NIH/3T3 BTK C481S cells; read-out: NIH/3T3 BTK-C481S pBTK. The procedure:
as §1, §2, §3, §4

A further assay has as its system Ramos cells with BTK WT. The experiment in a line: Phosphor-BTK(Y223) assay, suspended cells. The settings on record: Homo sapiens, Ramos, phosphorylated BTK Y223, Ramos cells with BTK WT. As for the experimental part: as §1
The steps for handling suspended cells were as follows: • 1) Ramos cells with BTK WT (2.5 k/well), BTK C481S (2.5 k/well), or BTK T474I (2.5 k/well) were plated in a 96-well plate, respectively. A compound of different concentration gradients was added using Tecan D300e, and the plate was incubated at 37 °C and 5% CO2 for 2 hours. • 2) 8.33 µL of 20 mM Na3VO4 was added to bring the final concentration to 5 mM, and the plate was incubated at 37 °C and 5% CO2 for 3 h. • 3) During the incubation, the following reagents were prepared: • 4x added lysis buffer: 24 vol 4x lysis buffer + 1 vol 25x blocking reagent. • p-BTK (Y223) cryptate-antibody and p-BTK (Y223) d2-antibody working solutions: 1 volume of each cryopreserved antibody (stored at - 20 °C) was added to 38 times the volume of assay buffer (stored at 4 °C), and mixed well. • 4) After the incubation was completed, 11.1 µL of 4x added lysis buffer was directly added. The plate was shaken at 800 rpm at room temperature for 30 min. • 5) The lysate was mixed well and 16 µL of it was transferred to a 384-well plate. 1 × added lysis buffer was used as a blank control. • 6) 4 µL of pre-mixed working solutions of the two antibodies (cryptate Ab:d2 Ab = 1:1) was added, and the plate was sealed. • 7) The plate was incubated at room temperature overnight. • 8) The plate was read at 665nm and 620nm using Biotek cytation3.0 microplate reader, and the ratio of 665/620nm of each well was calculated. Data analysis: IC50 was calculated using GraphPad Prism 7.0 software.
as §3, §4

A value given as a limit tells only on which side of the number the result lay.

In the case of `COc1ccc(F)cc1C(=O)NCc1ccc(-c2ncc(-c3cnc4cnccn34)c3[nH]nc(N)c23)cc1` [Example 64, N-(4-(3-amino-7-(imidazo[1,2-a]pyrazin-3-yl)-1H-pyrazolo[4,3-c]pyridin-4-yl)benzyl)-5-fluoro-2-methoxybenzamide], the IC50 in the assay on NIH/3T3 BTK WT cells, with NIH/3T3 BTK C481S cells and with Ramos cells with BTK WT was above 50 nM each time.
As to `COc1ccc(F)cc1C(=O)NCc1ccc(-c2ncc(C(=O)NC3CC3)c3[nH]nc(N)c23)cc1` [Example 81, 3-amino-N-cyclopropyl-4-(4-((5-fluoro-2-methoxybenzoylamino)methyl)phenyl)-1H-pyrazolo[4,3-c]pyridine-7-carboxamide], the IC50 in the assay with NIH/3T3 BTK WT cells, with NIH/3T3 BTK C481S cells and in the assay with Ramos cells with BTK WT was above 50 nM in each case.
With `COc1ccc(F)cc1C(=O)NCc1ccc(-c2ncc(-c3ccc(F)cn3)c3[nH]nc(N)c23)c(C)c1` [Example 83, N-(4-(3-amino-7-(5-fluoropyridin-2-yl)-1H-pyrazolo[4,3-c]pyridin-4-yl)-3-methylbenzyl)-5-fluoro-2-methoxybenzamide], the IC50 in the assay with NIH/3T3 BTK WT cells was 10 to 50 nM; with NIH/3T3 BTK C481S cells, above 50 nM; in the assay on Ramos cells with BTK WT it was above 50 nM.
Take `COc1ccc(F)cc1C(=O)NCc1ccc(-c2nc(-c3ccccc3C)cc3[nH]nc(N)c23)cc1` [Example 87, N-(4-(3-amino-6-(o-tolyl)-1H-pyrazolo[4,3-c]pyridin-4-yl)benzyl)-5-fluoro-2-methoxybenzamide]: the IC50 with NIH/3T3 BTK WT cells, in the assay with NIH/3T3 BTK C481S cells and with Ramos cells with BTK WT was above 50 nM each time.
For the molecule `COc1ccc(F)cc1C(=O)NCc1ccc(-c2nc(-c3ccccc3Cl)cc3[nH]nc(N)c23)cc1` [Example 88, N-(4-(3-amino-6-(2-chlorophenyl)-1H-pyrazolo[4,3-c]pyridin-4-yl)benzyl)-5-fluoro-2-methoxybenzamide], the IC50 in the assay on NIH/3T3 BTK WT cells is 10 to 50 nM; in the assay on NIH/3T3 BTK C481S cells, above 50 nM; in the assay on Ramos cells with BTK WT it was 5 to 10 nM.
As for `COc1ccc(F)cc1C(=O)NCc1ccc(-c2nc(-c3c(Cl)cccc3Cl)cc3[nH]nc(N)c23)cc1` [Example 89, N-(4-(3-amino-6-(2,6-dichlorophenyl)-1H-pyrazolo[4,3-c]pyridin-4-yl)benzyl)-5-fluoro-2-methoxybenzamide], the IC50 was 10 to 50 nM in the assay with NIH/3T3 BTK WT cells, above 50 nM in the assay with NIH/3T3 BTK C481S cells and 10 to 50 nM with Ramos cells with BTK WT.
As for `COc1ccc(F)cc1C(=O)NCc1ccc(-c2nc(-c3ccc(C(=O)O)cc3)cc3[nH]nc(N)c23)cc1` [Example 90, 4-(3-amino-4-(4-((5-fluoro-2-methoxybenzoylamino)methyl)phenyl)-1H-pyrazolo[4,3-c]pyridin-6-yl)benzoic acid], the IC50 in the assay on NIH/3T3 BTK WT cells, in the assay with NIH/3T3 BTK C481S cells and in the assay on Ramos cells with BTK WT was above 50 nM throughout.
Regarding `Nc1n[nH]c2cc(C3CC[S+]([O-])CC3)nc(-c3ccc(CNC(=O)c4cc(F)ccc4O)cc3)c12` (stereo not drawn) [Example 92, N-(4-(3-amino-6-(1-oxidotetrahydro-2H-thiopyran-4-yl)-1H-pyrazolo[4,3-c]pyridin-4-yl)benzyl)-5-fluoro-2-hydroxybenzamide], the IC50 was above 50 nM in the assay with NIH/3T3 BTK WT cells, above 50 nM in the assay on NIH/3T3 BTK C481S cells and 10 to 50 nM with Ramos cells with BTK WT.
Take `COc1ccc(F)cc1C(=O)NCc1ccc(-c2nc(C3CCS(=O)(=O)CC3)cc3[nH]nc(N)c23)cc1` [Example 93, N-(4-(3-amino-6-(1,1-dioxidotetrahydro-2H-thiopyran-4-yl)-1H-pyrazolo[4,3-c]pyridin-4-yl)benzyl)-5-fluoro-2-methoxybenzamide]: the IC50 in the assay on NIH/3T3 BTK WT cells, in the assay on NIH/3T3 BTK C481S cells and in the assay with Ramos cells with BTK WT was above 50 nM throughout.
In the case of `COc1ccc(F)cc1C(=O)NCc1ccc(-c2nc(Cl)cc3[nH]nc(N)c23)cc1` [Example 94, N-(4-(3-amino-6-chloro-1H-pyrazolo[4,3-c]pyridin-4-yl)benzyl)-5-fluoro-2-methoxybenzamide], the IC50 in the assay on NIH/3T3 BTK WT cells, in the assay on NIH/3T3 BTK C481S cells and in the assay on Ramos cells with BTK WT was above 50 nM each time.
In the case of `COc1ccc(F)cc1C(=O)NCc1ccc(-c2nc(C3CCCN(C(=O)Nc4ccccc4)C3)cc3[nH]nc(N)c23)cc1` (stereo not drawn) [Example 95, 3-(3-amino-4-(4-((5-fluoro-2-methoxybenzoylamino)methyl)phenyl)-1H-pyrazolo[4,3-c]pyridin-6-yl)-N-phenylpiperidine-1-carboxamide], the IC50 with NIH/3T3 BTK WT cells is above 50 nM; in the assay on NIH/3T3 BTK C481S cells, above 50 nM; in the assay with Ramos cells with BTK WT, 5 to 10 nM.
In the case of `COc1ccc(F)cc1C(=O)NCc1ccc(-c2nc(C3CCN(C(=O)Nc4ccccc4)CC3)cc3[nH]nc(N)c23)cc1` [Example 97, 4-(3-amino-4-(4-((5-fluoro-2-methoxvbenzoylamino)methyl)phenyl)-1H-pyrazolo[4,3-c]pyridin-6-yl)-N-phenylpiperidine-1-carboxamide], the IC50 with NIH/3T3 BTK WT cells was above 50 nM; in the assay with NIH/3T3 BTK C481S cells, above 50 nM; in the assay on Ramos cells with BTK WT, 5 to 10 nM.
In the case of `COc1ccc(F)cc1C(=O)NCc1ccc(-c2ncc(-c3cnn4ccncc34)c3[nH]nc(N)c23)cc1` [Example 109, N-(4-(3-amino-7-(pyrazolo[1,5-a]pyrazin-3-yl)-1H-pyrazolo[4,3-c]pyridin-4-yl)benzyl)-5-fluoro-2-methoxybenzamide], the IC50 in the assay on NIH/3T3 BTK WT cells, in the assay with NIH/3T3 BTK C481S cells and in the assay with Ramos cells with BTK WT was above 50 nM throughout.
With `COc1ccc(F)cc1C(=O)NCc1ccc(-c2ncc(-c3cnc4cccnn34)c3[nH]nc(N)c23)cc1` [Example 110, N-(4-(3-amino-7-(imidazo[1,2-b]pyridazin-3-yl)-1H-pyrazolo[4,3-c]pyridin-4-yl)benzyl)-5-fluoro-2-methoxybenzamide], the IC50 in the assay with NIH/3T3 BTK WT cells, with NIH/3T3 BTK C481S cells and with Ramos cells with BTK WT was above 50 nM throughout.
Turning to `COc1ccc(F)cc1C(=O)NCc1ccc(-c2ncc(-c3ccnc4ccnn34)c3[nH]nc(N)c23)cc1` [Example 111, N-(4-(3-amino-7-(pyrazolo[1,5-a]pyrimidin-7-yl)-1H-pyrazolo[4,3-c]pyridin-4-yl)benzyl)-5-fluoro-2-methoxybenzamide], the IC50 with NIH/3T3 BTK WT cells, in the assay with NIH/3T3 BTK C481S cells and in the assay with Ramos cells with BTK WT was above 50 nM in each case.
Turning to `COc1ccc(F)cc1C(=O)NCc1ccc(-c2ncc(-c3ncn4ccccc34)c3[nH]nc(N)c23)cc1` [Example 113, N-(4-(3-amino-7-(imidazo[1,5-a]pyridin-1-yl)-1H-pyrazolo[4,3-c]pyridin-4-yl)benzyl)-5-fluoro-2-methoxybenzamide], the IC50 in the assay with NIH/3T3 BTK WT cells, in the assay with NIH/3T3 BTK C481S cells and with Ramos cells with BTK WT was at most 5 nM each time.
On to `COc1ccc(F)cc1C(=O)NCc1ccc(-c2nccc3[nH]nc(N)c23)cc1` [Example 116, N-(4-(3-amino-1H-pyrazolo[4,3-c]pyridin-4-yl)benzyl)-5-fluoro-2-methoxvbenzamide], for which the IC50 in the assay on NIH/3T3 BTK WT cells, in the assay on NIH/3T3 BTK C481S cells and with Ramos cells with BTK WT was above 50 nM each time.
